Legend:
[1] = target: T1, P. acnes β-ketoacyl acyl carrier protein (ACP) synthase III (KAS III) (Cutibacterium acnes, UniProt P0DW99); format: biochemical
T1 construct: gene fabH; wild-type P. acnes KAS III
T1 sequence (P0DW99 1-332): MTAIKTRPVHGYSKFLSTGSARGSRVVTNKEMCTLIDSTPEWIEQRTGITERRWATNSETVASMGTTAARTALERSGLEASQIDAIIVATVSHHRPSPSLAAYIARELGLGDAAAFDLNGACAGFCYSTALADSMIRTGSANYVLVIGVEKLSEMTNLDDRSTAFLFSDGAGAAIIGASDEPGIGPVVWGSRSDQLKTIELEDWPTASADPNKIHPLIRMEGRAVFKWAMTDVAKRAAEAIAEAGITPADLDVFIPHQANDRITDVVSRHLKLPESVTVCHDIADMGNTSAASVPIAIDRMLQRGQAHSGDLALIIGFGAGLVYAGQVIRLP

[2] = target: T2, JNK1 (Homo sapiens, UniProt P45983); assay: tryptophan fluorescence quenching titration with purified protein; format: binding
T2 construct: gene MAPK8; C-terminal truncated form of human JNK1α1 (residues 1–364), C-terminal 6His tag
T2 sequence (P45983 1-364): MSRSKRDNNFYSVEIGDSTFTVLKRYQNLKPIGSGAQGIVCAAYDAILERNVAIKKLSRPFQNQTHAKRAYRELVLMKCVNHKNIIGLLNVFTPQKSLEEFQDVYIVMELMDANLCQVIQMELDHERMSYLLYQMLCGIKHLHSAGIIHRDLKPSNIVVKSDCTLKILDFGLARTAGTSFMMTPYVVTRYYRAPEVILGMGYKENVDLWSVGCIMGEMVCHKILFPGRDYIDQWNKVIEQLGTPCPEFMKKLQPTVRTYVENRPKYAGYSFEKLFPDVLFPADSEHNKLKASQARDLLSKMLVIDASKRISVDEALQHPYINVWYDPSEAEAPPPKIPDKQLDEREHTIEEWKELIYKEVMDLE

Q: How did the “% reduction of product” value [1] turn out when `O=C(CCc1ccc(O)cc1)c1c(O)cc(O)cc1O` [Phloretin, 3-(4-hydroxyphenyl)-1-(2,4,6-trihydroxyphenyl)-1-propanone] was run?
A: Its value is > 66 % reduction of product.

Q: What about the Kd [2] of the same compound?
A: Its Kd is 11.8 µM.

Reference: PMC6479541, “Target Proteins of Phloretin for Its Anti-Inflammatory and Antibacterial Activities Against Propionibacterium acnes-Induced Skin Infection” (Molecules, 2019)
